# Several values for one entry are separate records, joined by “and”; a condition that tells them apart may be missing. Equal values may be shown once. Read-outs that look alike come from different tables or passages of the source.
# What was measured:
# Aedes aegypti [1] = experiment: Co-toxicity assay with permethrin (topical); settings: for 1-h knockdown Co-Toxicity Factor / 24-h mortality Co-Toxicity Factor: >+20 potentiation, <−20 antagonism, −20 to +20 additive
# Description: (§1) For Ae. aegypti, synergism assays were performed similar to the topical applications described previously, with the following modifications: 2 doses (2 µg/mosquito and 10 µg/mosquito) of each monoterpenoid were applied as synergists, similar to previous studies exploring the synergistic potential of natural products in combination with an intermediate dose-level of insecticide alone.
# (§2) Mosquitoes were transferred to deli cups and kept at a controlled temperature and humidity (the same conditions as described for the topical application of insecticides and monoterpenoids alone). Again, a minimum of 3 separate rearing cohorts were used among replicates of each dose combination.
# (§3) Dose responses were modeled via probit analysis, and their resulting estimates were obtained. […] A control correction option (OPTC command) was used to account for responses to the vehicle control treatments. Co-toxicity values were calculated by the method of [29]. A co-toxicity factor of >+20 signifies potentiation, <−20 antagonism, and −20 to +20 additive.
# acetylcholinesterase = acetylcholinesterase (Musca domestica, UniProt Q7YWJ9); experiment: In vitro inhibition of acetylcholinesterase (Ellman), head homogenate; assay type: biochemical; settings: at 1 mM, M. domestica preparation; read-out: inhibition of AChE
# Chain of acetylcholinesterase (Q7YWJ9 81-660): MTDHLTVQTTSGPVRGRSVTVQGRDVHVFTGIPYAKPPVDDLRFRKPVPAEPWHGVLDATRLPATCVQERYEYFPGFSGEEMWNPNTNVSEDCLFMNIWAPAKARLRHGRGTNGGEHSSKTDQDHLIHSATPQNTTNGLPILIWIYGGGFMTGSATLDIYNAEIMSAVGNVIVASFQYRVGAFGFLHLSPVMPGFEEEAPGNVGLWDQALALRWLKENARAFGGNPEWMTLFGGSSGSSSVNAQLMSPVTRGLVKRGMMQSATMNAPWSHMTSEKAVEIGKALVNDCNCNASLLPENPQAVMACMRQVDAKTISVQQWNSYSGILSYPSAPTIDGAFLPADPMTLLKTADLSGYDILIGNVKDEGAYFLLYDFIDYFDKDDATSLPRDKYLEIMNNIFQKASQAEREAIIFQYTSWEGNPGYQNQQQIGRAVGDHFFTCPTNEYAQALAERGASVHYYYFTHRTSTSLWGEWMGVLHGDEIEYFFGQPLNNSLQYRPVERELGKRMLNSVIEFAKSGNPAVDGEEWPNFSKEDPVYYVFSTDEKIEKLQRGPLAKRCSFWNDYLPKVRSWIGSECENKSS
# Description: Acetylcholinesterase inhibition was conducted on homogenates of whole-body Ae. aegypti and M. domestica heads using Ellman’s method. For Ae. aegypti, 10 whole female adults were placed in 2 mL microcentrifuge screw cap tubes with 3–5.2 mm zircon/silica beads and homogenized in 500 μL of sodium phosphate buffer (100 mM, pH 7.8) using a Precellys Evolution bead beater (Bertin Corp., Rockville, MD, USA) set to two 15-s pulses of 5600 rpm. Afterward, 500 μL of Triton X-100 buffer (100 mM sodium phosphate, pH 7.8, 0.6% Triton X-100) was added to each tube (final Triton X-100 concentration: 0.3%), inverted several times to mix up the sample, and then centrifuged at 10,000× g for 4 min at 4 °C. The supernatant was used as the enzyme source. The same process was carried out with M. domestica, except three heads were processed in a 1000:1000 μL sodium phosphate buffer and Triton X-100 buffer in the same manner as just described.
# Concentration responses were conducted in the wells of a 96-well, clear, flat-bottomed plate. Inhibitor solutions of methomyl or monoterpenoids were first dissolved in DMSO (dimethyl sulfoxide) and then diluted in sodium phosphate buffer (100 mM, pH 7.8, DMSO concentration of 1%). A volume of 10 μL of the inhibitor solution was added to each well, along with 90 μL of sodium phosphate buffer, and finally 10 μL of homogenate. This was incubated on a plate shaker at 400 rpm for 10 min at room temperature. The final concentrations for methomyl were 100 μM, 10 μM, 1 μM, 100 nM, 10 nM, 1 nM, and 0 nM. For the monoterpenoids, the same range was used except the top concentration was 1 mM and the bottom non-zero concentration was 10 nM. The final concentration of DMSO in all wells was 0.09%.
# After the 10-min incubation, 100 μL of Ellman’s reagent prepared in sodium phosphate buffer and each corresponding inhibitor concentration were added to the wells using a multichannel pipette.
# as §3
# Aedes aegypti [2] = settings: for LD10 (95% CI) / LD50 (95% CI) / LD90 (95% CI): 24 h, topical, adult females, susceptible strain
# Aedes aegypti [3] = test system: Aedes aegypti
# Description: as §1, §2, §3
# rat = settings: in vivo; cited from earlier work
# Musca domestica [4] = settings: 24 h, topical, adult females, susceptible strain
# Musca domestica [5] = experiment: Co-toxicity assay with permethrin (topical); assay type: in vivo; settings: for 1-h% Mean Knockdown ± SEM, Synergist Alone / 24-h% Mean Mortality ± SEM, Synergist Alone: 10.2 μg PBO, 70 μg carvone, 190 μg menthone, 80 μg fenchone per fly; for times as potent a synergist of permethrin as PBO: 24-h mortality; for 1-h% Mean Knockdown ± SEM, Mixture: near-sublethal synergist dose (10.2 μg PBO, 70 μg carvone, 190 μg menthone, 80 μg fenchone) + permethrin 18 ng; for 1-h knockdown Co-Toxicity Factor / 24-h mortality Co-Toxicity Factor: near-sublethal synergist dose + permethrin, >+20 potentiation, <−20 antagonism, −20 to +20 additive
# Description: […]. Each dose was formulated in a total volume of 1.5 mL of acetone. A dose of permethrin that produced approximately 50% mortality (18 ng) was used as the treatment. Female flies were sorted into groups of 20 per synergism assay and dosed as previously mentioned (i.e., the same way as in the topical toxicity assays). Flies were assessed for mortality at 24 h.
# rabbit = settings: cited from earlier work
# [6] = cited from earlier work
# [7] = animal and route not given; cited from earlier work
# [8] = 2 μg synergist + permethrin 0.6 ng/mosquito
# [9] = 10 μg synergist + permethrin 0.6 ng/mosquito
# [10] = 10 μg synergist per Ae. aegypti
# [11] = 2 μg synergist + methomyl 6 ng/mosquito
# [12] = 2 μg synergist + methomyl, >+20 potentiation, <−20 antagonism, −20 to +20 additive
# [13] = 10 μg synergist + methomyl 6 ng/mosquito
# [14] = 10 μg synergist + methomyl, >+20 potentiation, <−20 antagonism, −20 to +20 additive
SMILES,"1-h% Mean Knockdown ± SEM, Mixture (Aedes aegypti [1]; [8])",1-h knockdown Co-Toxicity Factor (Aedes aegypti [1]; 2 μg synergist + permethrin),24-h mortality Co-Toxicity Factor (Aedes aegypti [1]; 2 μg synergist + permethrin),"1-h% Mean Knockdown ± SEM, Synergist Alone (Aedes aegypti [1]; 2 μg synergist per Ae. aegypti)","24-h% Mean Mortality ± SEM, Synergist Alone (Aedes aegypti [1]; 2 μg synergist per Ae. aegypti)","1-h% Mean Knockdown ± SEM, Mixture (Aedes aegypti [1]; [9])",1-h knockdown Co-Toxicity Factor (Aedes aegypti [1]; 10 μg synergist + permethrin),"1-h% Mean Knockdown ± SEM, Synergist Alone (Aedes aegypti [1]; [10])","24-h% Mean Mortality ± SEM, Synergist Alone (Aedes aegypti [1]; [10])",LD10 (95% CI) (Aedes aegypti [2]),LD90 (95% CI) (Aedes aegypti [2]),"1-h% Mean Knockdown ± SEM, Synergist Alone (Aedes aegypti [3]; 2 μg applied)","24-h% Mean Mortality ± SEM, Synergist Alone (Aedes aegypti [3]; 2 μg applied)","48-h% Mean Mortality ± SEM, Synergist Alone (Aedes aegypti [3]; 2 μg applied)",LD10 (95% CI) (Musca domestica [4]),LD90 (95% CI) (Musca domestica [4]),"1-h% Mean Knockdown ± SEM, Synergist Alone (Musca domestica [5])","24-h% Mean Mortality ± SEM, Synergist Alone (Musca domestica [5])","1-h% Mean Knockdown ± SEM, Mixture (Musca domestica [5])",1-h knockdown Co-Toxicity Factor (Musca domestica [5]),further results
"CC12CCC(C1)C(C)(C)C2=O [Fenchone, L-fenchone]",100 ± 0%,32.0,160,0 ± 0%,2.5 ± 2.5%,100 ± 0%,16,10 ± 4.1%,2.5 ± 2.5%,7600 (5000–9500) b ng/mg body weight,"42,000 (28,800–94,900) d ng/mg body weight",0 ± 0%,2.5 ± 2.5%,7.5 ± 4.8%,8800 (8100–9400) d ng/mg body weight,"19,900 (18,600–21,600) d ng/mg body weight",0 ± 0%,0 ± 0%,100 ± 0%,24.0,"24-h mortality Co-Toxicity Factor (Aedes aegypti [1]; 10 μg synergist + permethrin): 121; inhibition at 1000 µM (acetylcholinesterase): 1.9 ± 0.3%; LD50 (95% CI) (Aedes aegypti [2]): 11,300 (10,200–53,400) d ng/mg body weight; 1-h% Mean Knockdown ± SEM, Mixture (Aedes aegypti [3]; [11]): 83.3 ± 3.3%; 1-h knockdown Co-Toxicity Factor (Aedes aegypti [3]; [12]): −5; 24-h mortality Co-Toxicity Factor (Aedes aegypti [3]; [12]): −11; 48-h mortality Co-Toxicity Factor (Aedes aegypti [3]; [12]): −17; 24-h mortality Co-Toxicity Factor (Aedes aegypti [3]; 2 μg synergist + methomyl, >+20 potentiation, <−20 antagonism, −20 to +20 additive, listed as fenchone): negative; 1-h% Mean Knockdown ± SEM, Synergist Alone (Aedes aegypti [3]; 10 μg applied): 10 ± 4.1%; 24-h% Mean Mortality ± SEM, Synergist Alone (Aedes aegypti [3]; 10 μg applied): 2.5 ± 2.5%; 48-h% Mean Mortality ± SEM, Synergist Alone (Aedes aegypti [3]; 10 μg applied): 10 ± 4.1%; 1-h% Mean Knockdown ± SEM, Mixture (Aedes aegypti [3]; [13]): 93.3 ± 6.7%; 1-h knockdown Co-Toxicity Factor (Aedes aegypti [3]; [14]): −4; 24-h mortality Co-Toxicity Factor (Aedes aegypti [3]; [14]): 22; 48-h mortality Co-Toxicity Factor (Aedes aegypti [3]; [14]): 7; Oral LD50 (rat): 6160 (rt) mg compound per kg body weight; LD50 (95% CI) (Musca domestica [4]): 13,200 (12,600–13,800) d ng/mg body weight; times as potent a synergist of permethrin as PBO (Musca domestica [5]): 1.1; 24-h mortality Co-Toxicity Factor (Musca domestica [5]): 63.4; Dermal LD50 (rabbit; in vivo): 5000 (rb) mg compound per kg body weight"
"CC(C)[C@@H]1CC[C@@H](C)CC1=O [Menthone, L-menthone]",100 ± 0%,19.8,132,7.5 ± 4.8%,5 ± 2.9%,100 ± 0%,13,12.5 ± 4.8%,15 ± 5%,5000 (1000–6300) b ng/mg body weight,"10,000 (8500–13,100) c ng/mg body weight",7.5 ± 4.8%,5 ± 2.9%,7.5 ± 2.5%,5300 (5100–5400) c ng/mg body weight,8800 (8400–9400) c ng/mg body weight,4 ± 2.4%,0 ± 0%,95 ± 2.9%,12.6,"24-h mortality Co-Toxicity Factor (Aedes aegypti [1]; 10 μg synergist + permethrin): 83; times as strong a synergist of permethrin as PBO (Aedes aegypti [1]; 24-h mortality, 2 μg synergist): 5.3; inhibition at 1000 µM (acetylcholinesterase): 3.7 ± 1.2%; times as toxic as fenchone (Aedes aegypti [2]; at LD10): about 1.5; times as toxic as fenchone (Aedes aegypti [2]; at LD50): about 1.5; times as toxic as fenchone (Aedes aegypti [2]; at LD90): about 4.2; 1-h% Mean Knockdown ± SEM, Mixture (Aedes aegypti [3]; [11]): 100 ± 0%; 1-h knockdown Co-Toxicity Factor (Aedes aegypti [3]; [12]): 0; 48-h mortality Co-Toxicity Factor (Aedes aegypti [3]; [12]): 7; 1-h% Mean Knockdown ± SEM, Synergist Alone (Aedes aegypti [3]; 10 μg applied): 12.5 ± 4.8%; 24-h% Mean Mortality ± SEM, Synergist Alone (Aedes aegypti [3]; 10 μg applied): 15 ± 5%; 48-h% Mean Mortality ± SEM, Synergist Alone (Aedes aegypti [3]; 10 μg applied): 22.5 ± 7.5%; 1-h% Mean Knockdown ± SEM, Mixture (Aedes aegypti [3]; [13]): 100 ± 0%; 1-h knockdown Co-Toxicity Factor (Aedes aegypti [3]; [14]): 0; 24-h mortality Co-Toxicity Factor (Aedes aegypti [3]; [14]): 29; 48-h mortality Co-Toxicity Factor (Aedes aegypti [3]; [14]): 7; times as effective a synergist of methomyl as PBO (Aedes aegypti [3]; 24-h mortality, 2 μg synergist): 2.0; times as potent a synergist of permethrin as PBO (Musca domestica [5]): 0.9; 24-h mortality Co-Toxicity Factor (Musca domestica [5]): 48.4"
"CCCCOCCOCCOCc1cc2c(cc1CCC)OCO2 [PBO, piperonyl butoxide, reference compound]",52.5 ± 7.5%,−44.7,25,7.5 ± 2.5%,12.5 ± 6.3%,60 ± 14.7%,−39,22.5 ± 4.8%,72.5 ± 8.5%,–,–,7.5 ± 2.5%,12.5 ± 6.3%,15 ± 3.4%,–,–,2 ± 2%,6 ± 2.9%,96 ± 4%,16.2,"1-h knockdown Co-Toxicity Factor (Aedes aegypti [3]; in vivo): −5.3; 1-h% Mean Knockdown ± SEM, Mixture (Aedes aegypti [3]; in vivo): 90 ± 10%; 24-h mortality Co-Toxicity Factor (Aedes aegypti [3]; in vivo): 14.3; 48-h mortality Co-Toxicity Factor (Aedes aegypti [3]; in vivo): 20.9; 24-h mortality Co-Toxicity Factor (Musca domestica [5]): 55.9"
"CC1(C)C(C=C(Cl)Cl)C1C(=O)OCc1cccc(Oc2ccccc2)c1 (centres unmarked) [Permethrin, reference compound]",–,–,–,–,–,–,–,–,–,0.23 (0.12–0.33) a ng/mg body weight,1.41 (1.08–2.24) a ng/mg body weight,–,–,–,0.46 (0.37–0.56) a ng/mg body weight,1.5 (1.4–1.7) a ng/mg body weight,–,–,–,–,"1-h% Mean Knockdown ± SEM, Permethrin Alone (Aedes aegypti [1]; permethrin 0.6 ng/mosquito): 76 ± 9.2% and 87.5 ± 6.3%; 24-h% Mean Mortality ± SEM, Permethrin Alone (Aedes aegypti [1]; permethrin 0.6 ng/mosquito): 27.5 ± 4.8%; 24-h% Mean Mortality ± SEM, Permethrin Alone (Aedes aegypti [1]; permethrin 0.6 ng/mosquito, listed as permethrin): 36 ± 6%; LD50 (95% CI) (Aedes aegypti [2]): 0.58 (0.45–0.71) a ng/mg body weight; aerobic soil half-life [6]: 11.6 to 113 days; Oral LD50 (rat): 430–4000 (rt) mg compound per kg body weight; LD50 (95% CI) (Musca domestica [4]): 0.84 (0.79–0.93) a ng/mg body weight; 1-h% Mean Knockdown ± SEM, Permethrin Alone (Musca domestica [5]; permethrin 18 ng): 80 ± 7.3%; 24-h% Mean Mortality ± SEM, Permethrin Alone (Musca domestica [5]; permethrin 18 ng): 58 ± 10.1%; Dermal LD50 (rabbit; ref 32,33 (L-fenchone), 35,36 (Permethrin), 37 (Methomyl)): 2000 (rb) mg compound per kg body weight"
Cc1ccc(C(C)C)cc1O [carvacrol],–,–,–,–,–,–,–,–,–,–,–,–,–,–,–,–,–,–,–,–,LD50 [7]: 2000 to 3000 mg/kg
CC(C)=C1CC[C@@H](C)CC1=O [pulegone],–,–,–,–,–,–,–,–,–,–,–,–,–,–,–,–,–,–,–,–,LD50 [7]: 2000 to 3000 mg/kg

# — paper PMC10096376, “Insecticidal and Synergistic Potential of Three Monoterpenoids against the Yellow Fever Mosquito, Aedes aegypti (Diptera: Culicidae), and the House Fly, Musca domestica (Diptera: Muscidae)” (Molecules, 2023)
